# The supplement of paper PMC10307832
# Tests used:
# Assay in all cases: relative viability (nuclei count vs DMSO), 5 days (fraction); higher = more cells survive
# [1] = compound: CC1=NN=C(O1)C2=NN=C(C=C2)N3CCC(CC3)OC4=C(C=CC(=C4)F)Cl + C[C@]1(O)C[C@@H](c2nc(-c3ccc4ccc(-c5ccccc5)nc4c3)c3c(N)nccn32)C1 [Linsitinib] (partner 1 µM)
# Method in brief: (§1)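 Relative viability is defined as nuclei in treated wells over nuclei in vehicle wells. Duplicate plates were run and medians reported. Lung cancer cell lines in 1536-well plates were dosed by pin tool one day after seeding, with one drug or with a fixed anchor-drug dose plus five library-drug doses (not always all listed) in √10 steps, and nuclei were counted after 5 days.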
# [2] = compound: CC(C)C[C@@H](C(=O)N[C@H](C(=O)OC1CCCC1)c1ccccc1)[C@H](O)C(=O)NO [Tosedostat] + CC1(C)CCC(c2ccc(Cl)cc2)=C(CN2CCN(c3ccc(C(=O)NS(=O)(=O)c4ccc(N[C@H](CCN5CCOCC5)CSc5ccccc5)c(S(=O)(=O)C(F)(F)F)c4)cc3)CC2)C1 [Navitoclax] (partner 0.5 µM)
# Method in brief: as §1
# [3] = compound: CC1=NN=C(O1)C2=NN=C(C=C2)N3CCC(CC3)OC4=C(C=CC(=C4)F)Cl + C[C@@H](Oc1cc(-c2cnn(C3CCNCC3)c2)cnc1N)c1c(Cl)ccc(F)c1Cl [Crizotinib] (partner 1 µM)
# Method in brief: as §1
# [4] = compound: CC(C)C[C@@H](C(=O)N[C@H](C(=O)OC1CCCC1)c1ccccc1)[C@H](O)C(=O)NO [Tosedostat] + CC(=O)c1c(C)c2cnc(Nc3ccc(N4CCNCC4)cn3)nc2n(C2CCCC2)c1=O [Palbociclib] (partner 0.5 µM)
# Method in brief: as §1
cell line,measurement,setting,value
SW 1573,relative viability,[1]; first compound 0.253 µM,0.805
same,relative viability,[1]; first compound 0.8 µM,0.727
same,relative viability,[1]; first compound 2.53 µM,0.74
same,relative viability,[1]; first compound 8 µM,0.673
same,relative viability,[2]; first compound 0.02 µM,1.06
same,relative viability,[2]; first compound 0.06325 µM,1.05
same,relative viability,[2]; first compound 0.2 µM,1.06
same,relative viability,[2]; first compound 0.6325 µM,0.796
same,relative viability,[2]; first compound 2 µM,0.959
same,relative viability,[3]; first compound 0.253 µM,0.777
same,relative viability,[3]; first compound 0.8 µM,0.827
same,relative viability,[3]; first compound 2.53 µM,0.795
same,relative viability,[3]; first compound 8 µM,0.664
same,relative viability,[4]; first compound 0.02 µM,0.427
same,relative viability,[4]; first compound 0.06325 µM,0.394
same,relative viability,[4]; first compound 0.2 µM,0.369
same,relative viability,[4]; first compound 0.6325 µM,0.308
same,relative viability,[4]; first compound 2 µM,0.402
